Measurements published in US7981926B2, “Fluorotaxoids” (Research Foundation of State University of New York, priority 2005, dated 2011).
pIC50: −log10 of the molar value. Read-outs that look alike come from different tables or passages of the source.

Tests used:
[1] = test system: MCF7-R (mammary carcinoma cells 250-fold resistant to paclitaxel); test: Tumor growth inhibitory activity (cytotoxicity), SRB method of Skehan et al, MCF7-R; type: cell-based, human; conditions: for pIC50: read-out: IC50 MCF7-R (breast); for R/S (resistance factor): ratio of cytotoxicity against drug-resistant MCF7-R (R) to drug-sensitive MCF7 (S)
From the text: (§1) The results were obtained according to the methods of Skehan et al (See Skehan et al., J. Nat. Cancer Inst., 82, 1107 (1990)), as more fully described in the Examples. The resistance factor (R/S) shown in the table is a measure of the degree of resistance of a cell line against a taxoid compound. The resistance factor is a ratio of the cytoxicity of a taxoid compound against a drug-resistant cell line (R) as compared to its cytoxicity against a drug-sensitive cell line (S).
(§2) In the tables, lower numbers indicate higher potency (or greater activity). Paclitaxel was used as the standard for comparison. The data represent the mean values of at least three separate experiments.
(§3) Assessment of cell growth inhibition was determined according to the methods of Skehan et al (See Skehan et al., J. Nat. Cancer Inst., 82, 1107 (1990)). Briefly, cells were plated between 400 and 1200 cells/well in 96 well plates and incubated at 37° C. for 15-18 h prior to drug addition to allow attachment of cells. Compounds tested were solubilized in 100% DMSO and further diluted in RPMI-1640 containing 10 mM HEPES. Each cell line was treated with 10 concentrations of compounds (5 log range). After a 72 h incubation, 100 μL of ice-cold 50% TCA was added to each well and incubated for 1 h at 4° C. Plates were then washed 5 times with tap water to remove TCA, low-molecular-weight metabolites and serum proteins. Sulforhodamine B (SRB) (0.4%, 50 μL) was added to each well. Following a 5 minute incubation at room temperature, plates were rinsed 5 times with 0.1% acetic acid and air dried. Bound dye was solubilized with 10 mM Tris Base (pH 10.5) for 5 min on a gyratory shaker. Optical density was measured at 570 nm.
(§4) Data were fit with the Sigmoid-Emax concentration-effect model with non-linear regression, weighted by the reciprocal of the square of the predicted response (see Holford, N. H. G.; Scheiner, L. B., “Understanding the dose-effect relationship: Clinical applications of pharmaco-kinetic-pharmacodynamic models,” Clin. Pharmacokin., 6, 429-453 (1981)). The fitting software was developed by the Roswell Park Cancer Institute with Microsoft FORTRAN, and uses the Marquardt algorithm (see Marquardt, D. W., “An algorithm for least squares estimation of nonlinear parameters,” J. Soc. Ind. Appl. Math., 11, 431-441 (1963)) as adopted by Nash for the non-linear regression (see Nash, J. C., “Compact numerical method for computers: Linear algebra and function minimization,” John Wiley & Sons, New York, 1979).

[2] = test system: MCF7 (mammary carcinoma); test: Tumor growth inhibitory activity (cytotoxicity), SRB method of Skehan et al, MCF7; type: cell-based, human; conditions: read-out: IC50 MCF7 (breast)
From the text: as §1, §2, §3, §4

[3] = drug-resistant cell line, 72 h drug exposure, SRB, mean of at least three separate experiments
[4] = 72 h drug exposure, SRB, mean of at least three separate experiments
[5] = Homo sapiens, MCF7R, drug-resistant cell line, 72 h drug exposure, SRB, mean of at least three separate experiments
[6] = Homo sapiens, MCF7, 72 h drug exposure, SRB, mean of at least three separate experiments

Compound	pIC50 [1, 3]	R/S (resistance factor) [1]	pIC50 [2, 4]	pIC50 [1, 5]	pIC50 [2, 6]	pIC50 ([1]; Homo sapiens, MCF7R, 72 h)	pIC50 ([2]; Homo sapiens, MCF7, 72 h)
CC(=O)O[C@@]12CO[C@@H]1C[C@H](O)[C@@]1(C)C(=O)[C@H](OC(=O)C3CC3)C3=C(C)[C@@H](OC(=O)[C@H](O)[C@H](C=C(F)F)NC(=O)OC(C)(C)C)C[C@@](O)([C@@H](OC(=O)c4cccc(N=[N+]=[N-])c4)[C@H]21)C3(C)C [SB-T-12852-3, 3′-Dephenyl-3′-(2,2-difluorovinyl)-2-debenzoyl-2-(3-azidobenzoyl)-10-cyclopropanecarbonyldocetaxel]	9.35	4.9	10.04				
CC(=O)O[C@H]1C(=O)[C@@]2(C)[C@H]([C@H](OC(=O)c3ccccc3)[C@]3(O)C[C@H](OC(=O)[C@H](O)[C@@H](NC(=O)c4ccccc4)c4ccccc4)C(C)=C1C3(C)C)[C@]1(OC(C)=O)CO[C@@H]1C[C@@H]2O [Paclitaxel, paclitaxel, reference compound]		250		6.52	8.92		
CC(=O)O[C@@]12CO[C@@H]1C[C@H](O)[C@@]1(C)C(=O)[C@H](OC(=O)C3CC3)C3=C(C)[C@@H](OC(=O)[C@H](O)[C@H](C=C(F)F)NC(=O)OC(C)(C)C)C[C@@](O)([C@@H](OC(=O)c4ccccc4)[C@H]21)C3(C)C [SB-T-12852, 3′-dephenyl-3′-(2,2-difluorovinyl)-10-cyclopropanecarbonyl-docetaxel]	8.22	53	9.92				
COC(=O)O[C@H]1C(=O)[C@@]2(C)C([C@H](OC(=O)c3cccc(OC)c3)[C@]3(O)C[C@H](OC(=O)[C@H](O)[C@H](C=C(F)F)NC(=O)OC(C)(C)C)C(C)=C1C3(C)C)[C@]1(OC(C)=O)CO[C@@H]1C[C@@H]2O (stereo partly drawn) [SB-T-12855-1, 3′-Dephenyl-3′-(2,2-difluorovinyl)-2-debenzoyl-2-(3-methoxybenzoyl)-10-methoxycarbonyldocetaxel]		6.4		9.30	10.11		
CCC(=O)O[C@H]1C(=O)[C@@]2(C)C([C@H](OC(=O)c3cccc(Cl)c3)[C@]3(O)C[C@H](OC(=O)[C@H](O)[C@H](C=C(F)F)NC(=O)OC(C)(C)C)C(C)=C1C3(C)C)[C@]1(OC(C)=O)CO[C@@H]1C[C@@H]2O (stereo partly drawn) [SB-T-12853-4, 3′-Dephenyl-3′-(2,2-difluorovinyl)-2-debenzoyl-2-(3-chlorobenzoyl)-10-propanoyldocetaxel]		3.5		9.35	9.89		
CC(=O)O[C@@]12CO[C@@H]1C[C@H](O)[C@@]1(C)C(=O)[C@H](OC(=O)N(C)C)C3=C(C)[C@@H](OC(=O)[C@H](O)[C@H](C=C(F)F)NC(=O)OC(C)(C)C)C[C@@](O)([C@@H](OC(=O)c4cccc(N=[N+]=[N-])c4)C12)C3(C)C (stereo partly drawn) [SB-T-12854-3, 3′-Dephenyl-3′-(2,2-difluorovinyl)-2-debenzoyl-2-(3-azidobenzoyl)-10-dimethylcarbamoyldocetaxel]		3.7				9.35	9.89
CC(=O)O[C@H]1C(=O)[C@@]2(C)C([C@H](OC(=O)c3cccc(N=[N+]=[N-])c3)[C@]3(O)C[C@H](OC(=O)[C@H](O)[C@H](C=C(F)F)NC(=O)OC(C)(C)C)C(C)=C1C3(C)C)[C@]1(OC(C)=O)CO[C@@H]1C[C@@H]2O (stereo partly drawn) [SB-T-12851-3, 3′-Dephenyl-3′-(2,2-difluorovinyl)-2-debenzoyl-2-(3-azidobenzoyl)-10-acetyldocetaxel]		3.7		9.47	10.04		
CC(=O)O[C@H]1C(=O)[C@@]2(C)C([C@H](OC(=O)c3cccc(Cl)c3)[C@]3(O)C[C@H](OC(=O)[C@H](O)[C@H](C=C(F)F)NC(=O)OC(C)(C)C)C(C)=C1C3(C)C)[C@]1(OC(C)=O)CO[C@@H]1C[C@@H]2O (stereo partly drawn) [SB-T-12851-4, 3′-Dephenyl-3′-(2,2-difluorovinyl)-2-debenzoyl-2-(3-chlorobenzoyl)-10-acetyldocetaxel]		5.4		9.15	9.89		
COC(=O)O[C@H]1C(=O)[C@@]2(C)C([C@H](OC(=O)c3cccc(Cl)c3)[C@]3(O)C[C@H](OC(=O)[C@H](O)[C@H](C=C(F)F)NC(=O)OC(C)(C)C)C(C)=C1C3(C)C)[C@]1(OC(C)=O)CO[C@@H]1C[C@@H]2O (stereo partly drawn) [SB-T-12855-4, 3′-Dephenyl-3′-(2,2-difluorovinyl)-2-debenzoyl-2-(3-chlorobenzoyl)-10-methoxycarbonyldocetaxel]		12		8.94	10.00		
COc1cccc(C(=O)O[C@H]2C3[C@](C)(C(=O)[C@H](OC(=O)N(C)C)C4=C(C)[C@@H](OC(=O)[C@H](O)[C@H](C=C(F)F)NC(=O)OC(C)(C)C)C[C@]2(O)C4(C)C)[C@@H](O)C[C@H]2OC[C@@]32OC(C)=O)c1 (stereo partly drawn) [SB-T-12854-1, 3′-dephenyl-3′-(2,2-difluorovinyl)-2-debenzoyl-2-(3-methoxybenzoyl)-10-dimethylcarbamate-docetaxel]		8.7				9.02	9.96
CCC(=O)O[C@H]1C(=O)[C@@]2(C)C([C@H](OC(=O)c3cccc(N=[N+]=[N-])c3)[C@]3(O)C[C@H](OC(=O)[C@H](O)[C@H](C=C(F)F)NC(=O)OC(C)(C)C)C(C)=C1C3(C)C)[C@]1(OC(C)=O)CO[C@@H]1C[C@@H]2O (stereo partly drawn) [SB-T-12853-3, 3′-Dephenyl-3′-(2,2-difluorovinyl)-2-debenzoyl-2-(3-azidobenzoyl)-10-propanoyldocetaxel]		2.9		9.42	9.89		
COC(=O)O[C@H]1C(=O)[C@@]2(C)C([C@H](OC(=O)c3cccc(F)c3)[C@]3(O)C[C@H](OC(=O)[C@H](O)[C@H](C=C(F)F)NC(=O)OC(C)(C)C)C(C)=C1C3(C)C)[C@]1(OC(C)=O)CO[C@@H]1C[C@@H]2O (stereo partly drawn) [SB-T-12855-2, 3′-Dephenyl-3′-(2,2-difluorovinyl)-2-debenzoyl-2-(3-fluorobenzoyl)-10-methoxycarbonyldocetaxel]		11		8.73	9.92		
CC(=O)OC12COC1CC(O)C1(C)C(=O)C(OC(=O)C3CC3)C3=C(C)C(OC(=O)C(O)C(C=C(F)F)NC(=O)OC(C)(C)C)CC(O)(C(OC(=O)c4cccc(Cl)c4)C21)C3(C)C (stereo not drawn) [SB-T-12852-4, 3′-Dephenyl-3′-(2,2-difluorovinyl)-2-debenzoyl-2-(3-chlorobenzoyl)-10-cyclopropanecarbonyldocetaxel]	9.30	4.2	9.92				
COc1cccc(C(=O)O[C@H]2[C@@H]3[C@]4(OC(C)=O)CO[C@@H]4C[C@H](O)[C@@]3(C)C(=O)[C@H](OC(=O)C3CC3)C3=C(C)[C@@H](OC(=O)[C@H](O)[C@H](C=C(F)F)NC(=O)OC(C)(C)C)C[C@]2(O)C3(C)C)c1 [SB-T-12852-1, 3′-Dephenyl-3′-(2,2-difluorovinyl)-2-debenzoyl-2-(3-methoxybenzoyl)-10-cyclopropanecarbonyldocetaxel]	9.32	5.2	10.04				
CCC(=O)O[C@H]1C(=O)[C@@]2(C)C([C@H](OC(=O)c3cccc(F)c3)[C@]3(O)C[C@H](OC(=O)[C@H](O)[C@H](C=C(F)F)NC(=O)OC(C)(C)C)C(C)=C1C3(C)C)[C@]1(OC(C)=O)CO[C@@H]1C[C@@H]2O (stereo partly drawn) [SB-T-12853-2, 3′-Dephenyl-3′-(2,2-difluorovinyl)-2-debenzoyl-2-(3-fluorobenzoyl)-10-propanoyldocetaxel]		11		8.60	9.64		
CC(=O)O[C@@]12CO[C@@H]1C[C@H](O)[C@@]1(C)C(=O)[C@H](OC(=O)N(C)C)C3=C(C)[C@@H](OC(=O)[C@H](O)[C@H](C=C(F)F)NC(=O)OC(C)(C)C)C[C@@](O)([C@@H](OC(=O)c4cccc(F)c4)C12)C3(C)C (stereo partly drawn) [SB-T-12854-2, 3′-Dephenyl-3′-(2,2-difluorovinyl)-2-debenzoyl-2-(3-fluorobenzoyl)-10-dimethylcarbamoyldocetaxel]		9.4				8.65	9.77
